Assay results taken from PMC9611521, “Optimization of Resveratrol Used as a Scaffold to Design Histone Deacetylase (HDAC-1 and HDAC-2) Inhibitors” (Pharmaceuticals, 2022).

Experiments:
HDAC-2 = HDAC-2 (Homo sapiens, UniProt Q92769); assay: Enzymatic HDAC inhibition assay (fluorescence), HDAC-2; format: biochemical; conditions: compound at 10 µM
Experimental: (§1) Enzymatic assays to evaluate HDAC inhibition were performed, and the design involved three steps: (a) Preliminary screening to identify the most promising compounds; (b) Evaluation by a panel of HDAC isoforms to investigate selectivity; and (c) Determination of IC50 values. Firstly, compounds (4–7; 15–26) were evaluated at 10 µM against HDAC-1 and HDAC-2 (Table 2).
(§2) The enzymatic assay to evaluate HDAC inhibitory effects for all final compounds against the distinct isoforms was carried out in accordance with the previously described procedures (Lopes et al., 2021). All compounds were initially screened at 10 µM against HDAC-1 and HDAC-2. […] All the compounds were dissolved in DMSO. A serial dilution of the compounds was performed in 100% DMSO with the highest concentration at 1 mM. Each intermediate compound dilution (in 100% DMSO) was diluted 10x in assay buffer to form a 10% DMSO intermediate dilution in HDAC assay buffer. 5 µL of this dilution was added to a 50 µL reaction to bring the final concentration of DMSO to 1% in all the reactions. Three independent experiments were carried out in triplicate for all experiments. The fluorescence intensity was measured at an excitation of 360 nm and emission of 460 nm using a Tecan Infinite M1000 microplate reader, and the percentage of activity was calculated using the formula: % activity = (F − Fb)/(Ft − Fb), where F = the intensity of fluorescence in the presence of the compound. In the absence of the test compound, the fluorescent intensity (Ft) in each dataset was defined as 100% activity, while in the absence of HDAC, the fluorescent intensity (Fb) in each dataset was set to 0% activity.

HDAC-1 = HDAC-1 (Homo sapiens, UniProt Q13547); assay: Enzymatic HDAC inhibition assay (fluorescence), HDAC-1; format: biochemical; conditions: compound at 10 µM
Experimental: as §1, §2

SIRT1 = tested on: SIRT1; set-up: method as in PMID 30526767; conditions: dose-dependent experiments; cited from earlier work
HDAC isoforms = tested on: HDAC isoforms; set-up: method as in PMID 24023672; conditions: RVT 100 µM, nuclear extract of HeLa cells; cited from earlier work

Sequence of HDAC-2 (Q92769 whole entry, canonical isoform): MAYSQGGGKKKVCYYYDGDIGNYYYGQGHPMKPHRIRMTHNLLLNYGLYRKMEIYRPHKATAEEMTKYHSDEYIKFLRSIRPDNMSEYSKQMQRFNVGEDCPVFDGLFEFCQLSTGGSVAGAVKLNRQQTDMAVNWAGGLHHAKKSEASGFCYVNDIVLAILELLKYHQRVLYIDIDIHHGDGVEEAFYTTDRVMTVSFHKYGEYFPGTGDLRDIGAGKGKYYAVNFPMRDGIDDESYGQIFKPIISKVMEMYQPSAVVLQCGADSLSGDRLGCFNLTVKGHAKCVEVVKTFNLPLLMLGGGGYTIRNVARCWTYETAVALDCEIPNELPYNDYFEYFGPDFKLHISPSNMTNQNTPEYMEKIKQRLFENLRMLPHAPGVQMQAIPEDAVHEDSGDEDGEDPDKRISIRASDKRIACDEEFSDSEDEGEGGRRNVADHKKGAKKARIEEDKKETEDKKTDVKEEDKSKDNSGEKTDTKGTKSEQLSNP
Sequence of HDAC-1 (Q13547 whole entry): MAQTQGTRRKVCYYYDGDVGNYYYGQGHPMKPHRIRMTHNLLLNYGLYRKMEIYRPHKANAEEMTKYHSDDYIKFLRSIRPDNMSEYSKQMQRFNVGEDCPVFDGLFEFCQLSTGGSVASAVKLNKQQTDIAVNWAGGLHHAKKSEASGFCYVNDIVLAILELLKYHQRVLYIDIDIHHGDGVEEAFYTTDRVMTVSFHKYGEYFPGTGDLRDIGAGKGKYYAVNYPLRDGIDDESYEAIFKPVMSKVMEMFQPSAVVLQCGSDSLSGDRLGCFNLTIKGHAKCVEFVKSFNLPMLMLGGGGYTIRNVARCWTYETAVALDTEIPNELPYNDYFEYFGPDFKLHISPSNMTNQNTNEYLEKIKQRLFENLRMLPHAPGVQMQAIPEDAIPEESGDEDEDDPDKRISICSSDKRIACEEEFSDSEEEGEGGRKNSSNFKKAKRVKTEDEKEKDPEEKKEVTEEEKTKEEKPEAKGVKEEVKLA

Row | Structure (SMILES) | inhibition at 10 µM (HDAC-2) | inhibition at 10 µM (HDAC-1) | also measured
1 | O=C(O)c1ccc(COc2ccccc2)cc1 [Compound (15)] | 11% | 16 ± 0.6% | HDAC-2 inhibition (HDAC-2; 10 µM): 10 ± 0.5%
2 | O=C(O)c1ccc(COc2ccc(O)cc2)cc1 [Compound (17)] | 11 ± 0.5% | 12 ± 0.7% | –
3 | NC(=O)c1ccccc1OCc1ccc(C(=O)O)cc1 [Compound (19)] | 8 ± 0.6% | 13 ± 0.9% | melting point: 196.5 to 198.6 °C
4 | Nc1ccccc1NC(=O)c1ccc(COc2ccc(O)cc2)cc1 [Compound (22)] | 92 ± 0.7% | 96 ± 1.2% | –
5 | Nc1ccccc1NC(=O)c1ccc(COc2ccc(N3C(=O)c4ccccc4C3=O)cc2)cc1 [Compound (25)] | 21 ± 0.8% | 14 ± 0.5% | –
6 | Nc1ccccc1NC(=O)c1ccc(COc2ccc(N3C(=O)c4cccc([N+](=O)[O-])c4C3=O)cc2)cc1 [Compound (26)] | 6 ± 0.6% | 1 ± 0.5% | –
7 | Oc1ccc(/C=C/c2cc(O)cc(O)c2)cc1 [Resveratrol (RVT), trans-3,5,4′-trihydroxystilbene] | – | – | deacetylation rate of SIRT1 (SIRT1): increased; inhibition of HDAC-1 and HDAC-10 (HDAC isoforms): 40%; inhibition of HDAC-4 and HDAC-9 (HDAC isoforms): 50%

Continued, in another order:

Row | inhibition at 10 µM (HDAC-2) | inhibition at 10 µM (HDAC-1) | Structure (SMILES) | also measured
8 | 0% | 9 ± 1% | O=C(O)c1ccc(/C=C/c2ccccc2)cc1 [(6)] | –
9 | 28 ± 1% | 45 ± 1.2% | Nc1ccc(/C=C/c2ccc(C(=O)Nc3ccccc3N)cc2)cc1 [Compound (4)] | –
10 | 32 ± 0.7% | 42 ± 0.7% | Nc1ccccc1NC(=O)c1ccc(/C=C/c2ccccc2)cc1 [Compound (7)] | melting point: 177 to 179 °C
11 | 85 ± 1.1% | 87 ± 1.1% | Nc1ccccc1NC(=O)c1ccc(COc2ccccc2)cc1 [Compound (20)] | –
12 | 93 ± 1.2% | 96 ± 1.3% | Nc1ccccc1NC(=O)c1ccc(CNc2ccccc2)cc1 [Compound (21)] | –
13 | 52 ± 0.8% | 72 ± 1.1% | Nc1ccc(OCc2ccc(C(=O)Nc3ccccc3N)cc2)cc1 [Compound (23)] | –
14 | 81 ± 1.1% | 86 ± 1% | NC(=O)c1ccccc1OCc1ccc(C(=O)Nc2ccccc2N)cc1 [Compound (24)] | melting point: 162 to 163.7 °C
